These results are taken from US12054483B2, “Small molecule inhibitors of DYRK/CLK and uses thereof” (Arizona Board of Regents on Behalf of the University of …, priority 2018, dated 2024).

Molecules are shown by their SMILES.

The assay concerns the target DYRK1A (Homo sapiens, UniProt Q13627). In words: Affinity testing of compounds with DYRK1A (KD). It is filed as binding. Particulars: DYRK1A affinity key classes.
`Cc1cc(-c2ccc3ncc(-c4ccc(N5CCOCC5)nc4)n3n2)ccn1` [Compound 80, 4-(5-(6-(2-methylpyridin-4-yl)imidazo[1,2-b]pyridazin-3-yl)pyridin-2-yl)morpholine] showed a Kd of 0.101 to 0.5 µM. Then `Cc1nc2cc(-n3c(C)nc4ccc(-c5ccncc5)nc43)ccc2o1` [Compound 35, 2-methyl-5-(2-methyl-5-(pyridin-4-yl)-3H-imidazo[4,5-b]pyridin-3-yl)benzo[d]oxazole], with 0.101 to 0.5 µM.

`Cc1cn2nc(-c3ccnc(N)c3)ccc2n1` [Compound 25, 4-(2-methylimidazo[1,2-b]pyridazin-6-yl)pyridin-2-amine] returned a Kd of 0.0005 to 0.1 µM.

In turn, `CC(=O)N1CCN(c2cnc3ccc(-c4ccncc4)nn23)CC1` [Compound 85, 1-(4-(6-(pyridin-4-yl)imidazo[1,2-b]pyridazin-3-yl)piperazin-1-yl)ethan-1-one] yielded a Kd of 0.501 to 10 µM. The value for `FC1(F)CCCN(Cc2ccc(-c3cnc4ccc(-c5ccncc5)nn34)cc2)C1` [Compound 95] was 0.501 to 10 µM; that for `Cc1nc2ccc(-c3ccncc3)nc2n1-c1ccc2[nH]ccc2c1` [Compound 136, 3-(1H-indol-5-yl)-2-methyl-5-(pyridin-4-yl)-3H-imidazo[4,5-b]pyridine] was 0.0005 to 0.1 µM; that for `Cc1nc2ccc(-c3cn[nH]c3)nc2n1-c1ccc2c(c1)OCO2` [Compound 30, 3-(benzo[d][1,3]dioxol-5-yl)-2-methyl-5-(1H-pyrazol-4-yl)-3H-imidazo[4,5-b]pyridine] was 0.0005 to 0.1 µM. Then `Cc1nc2ccc(-c3ccncc3)nc2n1-c1cnc2[nH]ccc2c1` [Compound 137, 2-methyl-5-(pyridin-4-yl)-3-(1H-pyrrolo[2,3-b]pyridin-5-yl)-3H-imidazo[4,5-b]pyridine], with 0.0005 to 0.1 µM; and `c1cc(-c2ccc3ncc(-c4ccc(N5CCNCC5)nc4)n3n2)ccn1` [Compound 76, 3-(6-(piperazin-1-yl)pyridin-3-yl)-6-(pyridin-4-yl)imidazo[1,2-b]pyridazine], with 0.0005 to 0.1 µM. Then `Cc1cc(-n2c(C)nc3ccc(-c4ccnc(N)c4)nc32)cnc1N1CCOCC1` [Compound 162, 4-(2-methyl-3-(5-methyl-6-morpholinopyridin-3-yl)-3H-imidazo[4,5-b]pyridin-5-yl)pyridin-2-amine], with 0.0005 to 0.1 µM. Take `Cc1nc2ccc(-c3ccncc3)nc2n1-c1ccc(=O)n(C)c1` [Compound 41, 1-methyl-5-(2-methyl-5-(pyridin-4-yl)-3H-imidazo[4,5-b]pyridin-3-yl)pyridin-2(1H)-one]: the Kd fell in the range of 0.101 to 0.5 µM. The value for `Cc1nc2ccc(-c3ccnc(N)c3)nc2n1-c1cccc(CN2C[C@H](C)O[C@@H](C)C2)c1` [Compound 156, 4-(3-(3-(((2S,6S)-2,6-dimethylmorpholino)methyl)phenyl)-2-methyl-3H-imidazo[4,5-b]pyridin-5-yl)pyridin-2-amine] was 0.0005 to 0.1 µM. The value for `Cc1nc2ccc(-c3ccnc(N)c3)nc2n1-c1ccc(N2CCOCC2)c(F)c1` [Compound 144, 4-(3-(3-fluoro-4-morpholinophenyl)-2-methyl-3H-imidazo[4,5-b]pyridin-5-yl)pyridin-2-amine] was 0.0005 to 0.1 µM. As to `O=C(O)c1ccc(-n2cnc3ccc(-c4ccncc4)nc32)cc1` [Compound 10, 4-(5-(pyridin-4-yl)-3H-imidazo[4,5-b]pyridin-3-yl)benzoic acid], the Kd fell in the range of 0.0005 to 0.1 µM.

For the compound `COc1cnc(-c2ccncc2)nc1` [Compound 70, 5-methoxy-2-(pyridin-4-yl)pyrimidine], the Kd was in the range of 0.501 to 10 µM.

Turning to `Cc1nc2ccc(-c3ccncc3)nc2n1-c1ccc(CN2C[C@H](C)O[C@@H](C)C2)cc1` [Compound 118, (2S,6S)-2,6-dimethyl-4-(4-(2-methyl-5-(pyridin-4-yl)-3H-imidazo[4,5-b]pyridin-3-yl)benzyl)morpholine], the Kd lay within 0.0005 to 0.1 µM.

Take `Cc1nc2ccc(-c3ccnc(N)c3)nc2n1-c1ccc(N2CC3CCC(C2)O3)c(F)c1` [Compound 167, 4-(3-(4-(8-oxa-3-azabicyclo[3.2.1]octan-3-yl)-3-fluorophenyl)-2-methyl-3H-imidazo[4,5-b]pyridin-5-yl)pyridin-2-amine]: the Kd was 0.0005 to 0.1 µM.

As for `Cc1nc2ccc(-c3ccncc3)nc2n1-c1ccc(C(=O)N2CCN(C3COC3)CC2)cc1` [Compound 57, (4-(2-methyl-5-(pyridin-4-yl)-3H-imidazo[4,5-b]pyridin-3-yl)phenyl)(4-(oxetan-3-yl)piperazin-1-yl)methanone], the Kd was 0.101 to 0.5 µM.

On to `c1cc(-c2ccc3ncc(-c4ccc5c(c4)OCO5)n3n2)ccn1` [Compound 23, 3-(benzo[d][1,3]dioxol-5-yl)-6-(pyridin-4-yl)imidazo[1,2-b]pyridazine], for which the Kd lay within 0.0005 to 0.1 µM. As to `CN1CCN(Cc2ccc(-c3cnc4ccc(-c5ccncc5)nn34)cc2)CC1` [Compound 100, 3-(4-((4-methylpiperazin-1-yl)methyl)phenyl)-6-(pyridin-4-yl)imidazo[1,2-b]pyridazine], the Kd was 0.101 to 0.5 µM. Then `Cc1cc(-c2ccc3ncc(-c4ccc(CN5CCCC(F)(F)C5)cc4)n3n2)ccn1` [Compound 89, 3-(4-((3,3-difluoropiperidin-1-yl)methyl)phenyl)-6-(2-methylpyridin-4-yl)imidazo[1,2-b]pyridazine], with 0.101 to 0.5 µM; and `Cc1nc2ccc(-c3ccnc(N)c3)nc2n1-c1cnc2[nH]ccc2c1` [Compound 152, 4-(2-methyl-3-(1H-pyrrolo[2,3-b]pyridin-5-yl)-3H-imidazo[4,5-b]pyridin-5-yl)pyridin-2-amine], with 0.0005 to 0.1 µM; and `Cc1nc2ccc(-c3ccncc3)nc2n1-c1ncc(CN2CCCC(F)(F)C2)s1` [Compound 62, 5-((3,3-difluoropiperidin-1-yl)methyl)-2-(2-methyl-5-(pyridin-4-yl)-3H-imidazo[4,5-b]pyridin-3-yl)thiazole], with 0.0005 to 0.1 µM. Consider `Fc1c(-c2ccncc2)ccc2ncn(-c3ccc4c(c3)OCO4)c12` [Compound 1, 1-(benzo[d][1,3]dioxol-5-yl)-7-fluoro-6-(pyridin-4-yl)-1H-benzo[d]imidazole], for which the Kd was in the range of 0.0005 to 0.1 µM. Then `c1cc(-c2cn3cnnc3cn2)ccn1` [Compound 68, 6-(pyridin-4-yl)-[1,2,4]triazolo[4,3-a]pyrazine], with 0.501 to 10 µM; and `c1cc(-c2ccc3ncc(-c4ccc(CN5CCCCC5)cc4)n3n2)ccn1` [Compound 97, 3-(4-(piperidin-1-ylmethyl)phenyl)-6-(pyridin-4-yl)imidazo[1,2-b]pyridazine], with 0.0005 to 0.1 µM. Then `Cc1cc(-c2ccc3ncc(-c4ccc(CN5C[C@@H]6C[C@@H]5CO6)cc4)n3n2)ccn1` [Compound 91, (1S,4R)-5-(4-(6-(2-methylpyridin-4-yl)imidazo[1,2-b]pyridazin-3-yl)benzyl)-2-oxa-5-azabicyclo[2.2.1]heptane], with 0.0005 to 0.1 µM. Then `Cc1nc2cccnc2n1-c1ccc(CN2CCOCC2)cc1` [Compound 177, 4-(4-(2-methyl-3H-imidazo[4,5-b]pyridin-3-yl)benzyl)morpholine], with 0.501 to 10 µM; and `Cc1cc(-c2ccc3ncc(N4CCN(C5COC5)CC4)n3n2)ccn1` [Compound 84, 6-(2-methylpyridin-4-yl)-3-(4-(oxetan-3-yl)piperazin-1-yl)imidazo[1,2-b]pyridazine], with 0.501 to 10 µM; and `Cc1nc2ccc(-c3ccncc3)nc2n1-c1ccc(C(=O)NC2CC(F)(F)C2)cc1` [Compound 58, N-(3,3-difluorocyclobutyl)-4-(2-methyl-5-(pyridin-4-yl)-3H-imidazo[4,5-b]pyridin-3-yl)benzamide], with 0.101 to 0.5 µM.

Consider `Fc1cc(-c2ccncc2)cc2c1ncn2-c1ccc2c(c1)OCO2` [Compound 3, 1-(benzo[d][1,3]dioxol-5-yl)-4-fluoro-6-(pyridin-4-yl)-1H-benzo[d]imidazole], for which the Kd was in the range of 0.0005 to 0.1 µM. In turn, `c1cc(-c2cn3c(-c4ccc5c(c4)OCO5)cnc3cn2)ccn1` [Compound 67, 3-(benzo[d][1,3]dioxol-5-yl)-6-(pyridin-4-yl)imidazo[1,2-a]pyrazine] showed a Kd of 0.0005 to 0.1 µM. In turn, `c1cc(-c2ccc3ncc(-c4ccc(CN5CCOCC5)cc4)n3n2)ccn1` [Compound 96, 4-(4-(6-(pyridin-4-yl)imidazo[1,2-b]pyridazin-3-yl)benzyl)morpholine] showed a Kd of 0.101 to 0.5 µM. Consider `CC(=O)N1C[C@@H]2[C@H](C1)[C@H]2n1c(C)nc2ccc(-c3ccncc3)nc21` [Compound 38, 1-((1R,5S,6s)-6-(2-methyl-5-(pyridin-4-yl)-3H-imidazo[4,5-b]pyridin-3-yl)-3-azabicyclo[3.1.0]hexan-3-yl)ethan-1-one], for which the Kd lay in the range of 0.0005 to 0.1 µM.

With `Cc1nc2ccc(-c3ccncc3)nc2n1-c1ccc(CN2CCN(C3COC3)CC2)cc1` [Compound 63, 2-methyl-3-(4-((4-(oxetan-3-yl)piperazin-1-yl)methyl)phenyl)-5-(pyridin-4-yl)-3H-imidazo[4,5-b]pyridine], the Kd was in the range of 0.0005 to 0.1 µM. Consider `Cc1cc(-c2ccc3ncc(-c4ccc(CN5CCOCC5)cc4)n3n2)ccn1` [Compound 90, 4-(4-(6-(2-methylpyridin-4-yl)imidazo[1,2-b]pyridazin-3-yl)benzyl)morpholine], for which the Kd fell in the range of 0.101 to 0.5 µM. `Fc1cnccc1-c1ccc2ncc(-c3ccc(CN4CCCCC4)cc3)n2n1` [Compound 109, 6-(3-fluoropyridin-4-yl)-3-(4-(piperidin-1-ylmethyl)phenyl)imidazo[1,2-b]pyridazine] registered a Kd of 0.501 to 10 µM.

`Cc1nc2ccc(-c3ccncc3)nc2n1-c1ccc(C#N)cn1` [Compound 42, 6-(2-methyl-5-(pyridin-4-yl)-3H-imidazo[4,5-b]pyridin-3-yl)nicotinonitrile] yielded a Kd of 0.0005 to 0.1 µM.

Take `Cc1nc2cc(-n3c(C)nc4ccc(-c5ccncc5)nc43)ccc2[nH]1` [Compound 138, 2-methyl-3-(2-methyl-1H-benzo[d]imidazol-5-yl)-5-(pyridin-4-yl)-3H-imidazo[4,5-b]pyridine]: the Kd lay within 0.0005 to 0.1 µM. Then `Cc1nc2ncc(-c3ccncc3)nc2n1-c1ccc2[nH]cnc2c1` [Compound 131, 1-(1H-benzo[d]imidazol-5-yl)-2-methyl-6-(pyridin-4-yl)-1H-imidazo[4,5-b]pyrazine], with 0.101 to 0.5 µM.
